Assay results published in patent US4395403A, “Polypeptides, processes for their production, pharmaceutical compositions comprising said polypeptides and their use” (Sandoz Ltd., priority 1979, dated 1983).

Assays:
gastric secretion = assay: TEST II: inhibition of pentagastrin-stimulated gastric secretion in pylorus-ligated rats; type: in vivo, rat; details: i.m., 100 μg/kg pentagastrin s.c., 30 mins
Method: Male rats (220-280 g) are kept in the laboratory in individual cages for several days (14 hours light/day) with 48 hours fasting (but free access to water) immediately prior to the experiment. At start of the experiment the pylorus is ligated under ether anaesthesia and 100 μg/kg pentagastrin are injected s.c. to stimulate gastric secretion. The test compounds are injected simultaneously i.m. 30 mins. later the animals are sacrificed, the volume of gastric juice measured and the acid concentration estimated (titration with thymol blue). The acid output is calculated and the percent inhibition estimated in relation to untreated controls.
Polypeptides in accordance with the invention are active in this test when administered at a dosage in the range of from 0.01 to 100 μg/kg i.m.

[1] = tested on: GH-secretion (serum GH-level); assay: TEST I: depression of serum GH-levels in the rat (GH-secretion inhibition); type: in vivo; details: male rats under Nembutal narcosis, 15 minutes after administration
Method: This test (TEST I) is carried out employing male rats under Nembutal narcosis. The test-substance is administered at varying, logarithmically staggered doses employing at least 4 rats per dose. The rats are decapitated 15 minutes after administration, the blood is collected and the serum GH-level determined by radio-immuno-assay.
Polypeptides in accordance with the invention are active in this test when administered at a dosage in the range of from 0.01 to 100 μg/kg i.v. or i.m.

C[C@@H](O)[C@@H]1NC(=O)[C@H](CCCCN)NC(=O)[C@@H](Cc2c[nH]c3ccccc23)NC(=O)[C@H](Cc2ccccc2)NC(=O)[C@@H](NC(=O)[C@H](N)Cc2ccccc2)CSSC[C@@H](C(=O)N[C@H](CO)[C@@H](C)O)NC1=O [Example 1]
ID50 in TEST II for acid concentration (gastric secretion): 0.0004 mg/kg | ID50 in TEST II for gastric juice content (gastric secretion): 0.0007 mg/kg

C[C@H](N)C(=O)NCC(=O)N[C@H]1CSSC[C@@H](C(=O)O)NC(=O)[C@H](CO)NC(=O)[C@H]([C@@H](C)O)NC(=O)[C@H](Cc2ccccc2)NC(=O)[C@H]([C@@H](C)O)NC(=O)[C@H](CCCCN)NC(=O)[C@H](Cc2c[nH]c3ccccc23)NC(=O)[C@H](Cc2ccccc2)NC(=O)[C@H](Cc2ccccc2)NC(=O)[C@H](CC(N)=O)NC(=O)[C@H](CCCCN)NC1=O [somatostatin]
ID50 in TEST I (amount required to effect 50% inhibition of serum GH-level compared with untreated controls) ([1]; i.m.): 0.0056 mg/kg | ID50 in TEST I (amount required to effect 50% inhibition of serum GH-level compared with untreated controls) ([1]; i.v.): 0.062 mg/kg | ID50 in TEST II for acid concentration (gastric secretion): 0.035 mg/kg | ID50 in TEST II for gastric juice content (gastric secretion): 0.055 mg/kg
